According to article PMC6958387, “Biological Evaluation of Arylsemicarbazone Derivatives as Potential Anticancer Agents” (Pharmaceuticals, 2019):

Key:
CDK5/p25 = molecular target: T1, CDK5/p25 (Homo sapiens, UniProt Q00535); test: Kinase inhibition assay (ADP-Glo); format: biochemical; conditions: 10 µM ATP
T1 construct: made in house; host or cells: bacteria
Description: HsCDK5/p25 (human, recombinant, expressed in bacteria) was assayed in buffer A, with 0.8 µg/µL of histone H1 as substrate.

NCI-H292 = test: MTT cytotoxicity, 72 h; format: cell-based, human; conditions: Homo sapiens, NCI-H292, 72 h of incubation
Description: (§1) The cytotoxicity assessment was performed against three human cancer cell lines in suspension (K562, HL-60 and MOLT-4) and four adhered (HEp-2, NCI-H292, HT-29 and MCF-7).
(§2) The cells were obtained from the Cell Bank of Rio de Janeiro and maintained in the Laboratory of Cell Culture of the Department of Antibiotics of the Federal University of Pernambuco. The lines K562 (myeloblastic leukaemia), HL-60 (promyelocytic leukemia) and MOLT-4 (lymphoblastic leukemia) were cultured in RPMI 1640 medium and the lines HEp-2 (larynx carcinoma), NCI-H292 (lung carcinoma), HT-29 (colon adenocarcinoma) and MCF-7 (breast adenocarcinoma) were cultured in DMEM medium, supplemented with 10% fetal bovine serum, 2 mM glutamine, 100 U/mL penicillin and 100 μg/mL streptomycin (Gibco™ Life Technologies), at 37 °C and 5% CO2.
(§3) The evaluation of the cytotoxicity of the compounds was performed by the method of 3-(4,5-dimethyl-2-thiazolyl)-2,5-diphenyl-2H-tetrazolium bromide (MTT) (Sigma Aldrich Co., St. Louis, MO, USA). To perform the assay the cells were seeded in 96-well plates at the following concentrations: HL-60 and K562 (0.3 × 10^6 cells/mL); MOLT-4 and PBMC (10^6 cells/mL); NCI-H292, HT-29, HEp-2 e MCF-7 (10^5 cells/mL). Briefly, the compounds previously dissolved in DMSO (dimethylsulfoxide, Vetec, São Paulo, Brazil), were diluted in medium and added to each well at the desired concentrations. For the calculation of the concentration that inhibits 50% of cell growth (IC50) the compounds were serially diluted to obtain the final concentrations between 0.19–25 μg/mL. Doxorubicin was used as the standard in the concentration range between (0.078–10 μg/mL). After 72 h of contact of the cells with the compounds, it was added to each well 25 μL of MTT solution (5 mg/mL). Plates were left for another 3 h in incubator at 37 °C and at the end of that period the supernatant was aspirated. To perform the reading, 100 μL of DMSO was added in each well for the dissolution of the formazan crystals. The amount of formazan was measured by reading the plate at 560 nm absorbance. The IC50 was calculated from the nonlinear regression in the Prisma 7.0 software (GraphPad, San Diego, CA, USA). Each sample was tested in triplicate in three independent experiments.

MCF-7 = test: MTT cytotoxicity, 72 h; format: cell-based, human; conditions: Homo sapiens, MCF7, 72 h of incubation
Description: as §1, §2, §3

K562 = test: MTT cytotoxicity, 72 h; format: cell-based, human; conditions: Homo sapiens, K562, 72 h of incubation
Description: as §1, §2, §3

MOLT-4 = test: MTT cytotoxicity, 72 h; format: cell-based, human; conditions: Homo sapiens, MOLT-4, 72 h of incubation
Description: as §1, §2, §3

HT-29 = test: MTT cytotoxicity, 72 h; format: cell-based, human; conditions: Homo sapiens, HT-29, 72 h of incubation
Description: as §1, §2, §3

HEp-2 = test: MTT cytotoxicity, 72 h; format: cell-based, human; conditions: Homo sapiens, HEp-2, 72 h of incubation
Description: as §1, §2, §3

HL-60 = test: MTT cytotoxicity, 72 h; format: cell-based, human; conditions: for selectivity index (SI = IC50 PBMC/ IC50 cancer cells): HL-60 versus PBMC; for IC50: Homo sapiens, HL-60, MTT, 72 h of incubation
Description: as §1, §2, §3

CLK1 = molecular target: T2, CLK1 (Mus musculus, UniProt P22518); test: Kinase inhibition assay (ADP-Glo); format: biochemical; conditions: 10 µM ATP
T2 construct: made in house; host or cells: bacteria
Description: MmCLK1 (from Mus musculus, recombinant, expressed in bacteria) was assayed in buffer A with 0.027μg/µL of the following peptide: GRSRSRSRSRSR as substrate.

CDK2/CyclinA = CDK2/CyclinA (Homo sapiens, UniProt P24941); test: Kinase inhibition assay (ADP-Glo); format: biochemical; conditions: 10 µM ATP
Description: HsCDK2/CyclinA (human, cyclin-dependent kinase-2, kindly provided by Dr. A. Echalier-Glazer, Leicester, UK) was assayed in buffer A with 0.8 µg/µL of histone H1 as substrate.

CK1δ/ε = test: Kinase inhibition assay (ADP-Glo); format: biochemical, Sus scrofa domesticus; conditions: 10 µM ATP
Description: SscCK1δ/ε (Sus scrofa domesticus, casein kinase 1δ/ε, affinity purified from porcine brain) was assayed in buffer A, with 0.022 μg/μL of the following peptide: RRKHAAIGSpAYSITA (“Sp” stands for phosphorylated serine) as CK1-specific substrate.

HASPIN = molecular target: T3, HASPIN (Homo sapiens, UniProt Q8TF76); test: Kinase inhibition assay (ADP-Glo); format: biochemical; conditions: 10 µM ATP
T3 construct: kinase domain, amino acids 470 to 798; made in house; host or cells: bacteria
T3 sequence (Q8TF76 470-798): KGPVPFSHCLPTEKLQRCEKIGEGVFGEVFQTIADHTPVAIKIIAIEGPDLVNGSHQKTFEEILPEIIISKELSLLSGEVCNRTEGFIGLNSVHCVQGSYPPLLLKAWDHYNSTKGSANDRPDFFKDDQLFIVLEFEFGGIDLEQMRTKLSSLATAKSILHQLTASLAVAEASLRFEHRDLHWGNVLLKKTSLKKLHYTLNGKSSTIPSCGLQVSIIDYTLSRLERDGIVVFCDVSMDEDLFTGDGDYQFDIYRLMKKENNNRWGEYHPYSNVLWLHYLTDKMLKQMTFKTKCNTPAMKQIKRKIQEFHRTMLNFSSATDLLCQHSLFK
Description: HsHASPIN (human, kinase domain, amino acids 470 to 798, recombinant, expressed in bacteria) was assayed in buffer A with 0.007 µg/µL of Histone H3 (1-21) peptide ([…]) as substrate;

GSK3 α/β = test: Kinase inhibition assay (ADP-Glo); format: biochemical, Sus scrofa domesticus; conditions: 10 µM ATP
Description: SscGSK-3α/β (Sus scrofa domesticus, glycogen synthase kinase-3, affinity purified from porcine brain) was assayed in buffer A with 0.010 µg/µL of GS-1 peptide, a GSK-3-selective substrate ([…]pEDEEE, “Sp” stands for phosphorylated serine).

AURKB = molecular target: T4, AURKB (Homo sapiens, UniProt Q96GD4); test: Kinase inhibition assay (ADP-Glo); format: biochemical; conditions: 10 µM ATP
T4 construct: purchased SignalChem A31-10G; host or cells: Sf9 insect cells (baculovirus)
T4 sequence (Q96GD4 whole entry): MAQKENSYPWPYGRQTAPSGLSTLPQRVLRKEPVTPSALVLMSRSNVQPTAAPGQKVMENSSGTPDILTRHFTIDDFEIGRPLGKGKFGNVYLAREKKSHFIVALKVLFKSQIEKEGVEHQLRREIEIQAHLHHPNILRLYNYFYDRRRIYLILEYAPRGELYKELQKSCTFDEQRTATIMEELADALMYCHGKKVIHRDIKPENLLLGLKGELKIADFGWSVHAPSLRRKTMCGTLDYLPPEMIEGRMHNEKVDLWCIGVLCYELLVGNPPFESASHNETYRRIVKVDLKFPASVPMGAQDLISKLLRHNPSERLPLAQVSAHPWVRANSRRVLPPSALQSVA

T2 sequence (P22518 whole entry): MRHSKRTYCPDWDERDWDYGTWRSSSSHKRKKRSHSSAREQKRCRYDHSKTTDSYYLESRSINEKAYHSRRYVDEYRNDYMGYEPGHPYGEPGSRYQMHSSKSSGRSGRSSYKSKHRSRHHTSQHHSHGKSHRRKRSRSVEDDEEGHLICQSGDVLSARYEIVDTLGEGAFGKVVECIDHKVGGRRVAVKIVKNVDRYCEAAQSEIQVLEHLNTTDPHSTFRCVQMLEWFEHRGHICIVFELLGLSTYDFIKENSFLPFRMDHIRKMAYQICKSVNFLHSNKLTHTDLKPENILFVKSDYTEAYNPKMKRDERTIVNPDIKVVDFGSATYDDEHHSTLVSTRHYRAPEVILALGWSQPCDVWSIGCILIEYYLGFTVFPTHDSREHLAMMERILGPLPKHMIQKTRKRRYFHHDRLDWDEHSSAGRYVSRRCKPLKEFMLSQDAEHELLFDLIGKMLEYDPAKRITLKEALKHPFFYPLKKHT
T1 sequence (Q00535 whole entry): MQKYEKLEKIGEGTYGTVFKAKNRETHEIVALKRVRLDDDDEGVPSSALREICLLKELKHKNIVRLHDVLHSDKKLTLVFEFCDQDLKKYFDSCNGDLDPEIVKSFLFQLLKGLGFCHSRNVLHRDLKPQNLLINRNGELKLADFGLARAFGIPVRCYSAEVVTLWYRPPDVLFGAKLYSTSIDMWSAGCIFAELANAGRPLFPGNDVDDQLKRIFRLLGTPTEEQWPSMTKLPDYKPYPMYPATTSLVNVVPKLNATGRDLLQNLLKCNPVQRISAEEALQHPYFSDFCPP
T1 sequence (Q15078 99-307 partner limits assumed): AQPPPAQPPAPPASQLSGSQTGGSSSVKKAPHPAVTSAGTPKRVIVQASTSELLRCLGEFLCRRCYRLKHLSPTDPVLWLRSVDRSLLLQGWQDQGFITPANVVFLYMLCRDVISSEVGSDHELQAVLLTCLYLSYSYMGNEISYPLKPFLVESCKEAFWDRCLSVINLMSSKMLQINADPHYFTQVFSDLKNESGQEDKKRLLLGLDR

| IC50 (CDK5/p25) [µM] | IC50 (CLK1) [µM] | IC50 (CDK2/CyclinA) [µM] | IC50 (CK1δ/ε) [µM] | IC50 (HASPIN) [µM] | IC50 (GSK3 α/β) [µM] | IC50 (AURKB) [µM] | Structure (SMILES) | IC50 (NCI-H292) [µM] | IC50 (MCF-7) [µM] | IC50 (K562) [µM] | IC50 (MOLT-4) [µM] | IC50 (HT-29) [µM] | IC50 (HEp-2) [µM] | selectivity index (SI = IC50 PBMC/ IC50 cancer cells) (HL-60) | IC50 (HL-60) [µM] |
| --- | --- | --- | --- | --- | --- | --- | --- | --- | --- | --- | --- | --- | --- | --- | --- |
| 0.35 | 0.29 | 0.53 | > 10 | > 10 | > 10 | 5.1 | NC(=O)N/N=C/c1c(O)ccc2ccccc12 [Compound 3c, 2-Hydroxynaphthaldehyde Semicarbazone] | 56.3 ± 3.05 | 34 ± 1.06 | 52.3 ± 1.15 | 41 ± 0.7 | 40.6 ± 1.02 | 37.1 ± 1.5 | 6.2 | 13.1 ± 0.62 |
| > 10 | > 10 | > 10 | > 10 | > 10 | > 10 | > 10 | Cc1ccc(C=NNC(N)=O)cc1 [Compound 3g, 4-Methylbenzaldehyde Semicarbazone] | > 100 | > 100 | 33.3 ± 0.71 | 56.4 ± 0.97 | > 100 | 24.3 ± 0.97 |  | 48.5 ± 1.63 |
| > 10 | > 10 | > 10 | 0.76 | > 10 | > 10 | > 10 | CCCCN(N=Cc1ccc([N+](=O)[O-])o1)C(N)=O [Compound 4a, 5-Nitro-2-(N^2-n-butyl)furfuraldehyde Semicarbazone] | 37.9 ± 1.5 | 33.6 ± 0.71 | 24.2 ± 1.15 | 19.5 ± 0.62 | 36.3 ± 0.97 | 34.4 ± 0.88 | 4.5 | 11.4 ± 0.27 |
